In publication PMC7587962, “Evaluation of Cytotoxicity and α-Glucosidase Inhibitory Activity of Amide and Polyamino-Derivatives of Lupane Triterpenoids” (Molecules, 2020):
Where two headings read alike, the source gives them in different places.

Key:
[1] = system: HL-60(TB); assay: NCI-60 SRB screen: leukemia HL-60(TB); type: cell-based; conditions: Homo sapiens, 48 h, HL-60(TB)
[2] = system: K-562; assay: NCI-60 SRB screen: leukemia K-562; type: cell-based, human; conditions: K-562
[3] = system: A549/ATCC; assay: NCI-60 SRB screen: non-small cell lung cancer A549/ATCC; type: cell-based, human; conditions: A549/ATCC
[4] = system: NCI-H23; assay: NCI-60 SRB screen: non-small cell lung cancer NCI-H23; type: cell-based, human; conditions: NCI-H23
[5] = system: NCI-H460; assay: NCI-60 SRB screen: non-small cell lung cancer NCI-H460; type: cell-based; conditions: Homo sapiens, 48 h, NCI-H460
[6] = system: NCI-H522; assay: NCI-60 SRB screen: non-small cell lung cancer NCI-H522; type: cell-based, human; conditions: NCI-H522
[7] = system: COLO 205; assay: NCI-60 SRB screen: colon cancer COLO 205; type: cell-based, human; conditions: COLO 205
[8] = system: HCC-2998; assay: NCI-60 SRB screen: colon cancer HCC-2998; type: cell-based, human; conditions: HCC-2998
[9] = system: HCT-116; assay: NCI-60 SRB screen: colon cancer HCT-116; type: cell-based; conditions: Homo sapiens, 48 h, HCT-116
[10] = system: HCT-15; assay: NCI-60 SRB screen: colon cancer HCT-15; type: cell-based, human; conditions: HCT-15
[11] = system: HT29; assay: NCI-60 SRB screen: colon cancer HT29; type: cell-based; conditions: Homo sapiens, HT29
[12] = system: KM12; assay: NCI-60 SRB screen: colon cancer KM12; type: cell-based, human; conditions: KM12
[13] = system: SW-620; assay: NCI-60 SRB screen: colon cancer SW-620; type: cell-based; conditions: Homo sapiens, 48 h, SW-620
[14] = system: SF-268; assay: NCI-60 SRB screen: CNS cancer SF-268; type: cell-based, human; conditions: SF-268
[15] = system: SF-539; assay: NCI-60 SRB screen: CNS cancer SF-539; type: cell-based, human; conditions: SF-539
[16] = system: SNB-19; assay: NCI-60 SRB screen: CNS cancer SNB-19; type: cell-based, human; conditions: SNB-19
[17] = system: LOX IMVI; assay: NCI-60 SRB screen: melanoma LOX IMVI; type: cell-based, human
[18] = system: MDA-MB-435; assay: NCI-60 SRB screen: melanoma MDA-MB-435; type: cell-based, human; conditions: MDA-MB-435
[19] = system: SK-MEL-2; assay: NCI-60 SRB screen: melanoma SK-MEL-2; type: cell-based, human; conditions: SK-MEL-2
[20] = system: SK-MEL-5; assay: NCI-60 SRB screen: melanoma SK-MEL-5; type: cell-based, human; conditions: SK-MEL-5
[21] = system: UACC-62; assay: NCI-60 SRB screen: melanoma UACC-62; type: cell-based, human; conditions: UACC-62
[22] = system: IGROV1; assay: NCI-60 SRB screen: ovarian cancer IGROV1; type: cell-based, human; conditions: IGROV1
[23] = system: OVCAR-3; assay: NCI-60 SRB screen: ovarian cancer OVCAR-3; type: cell-based, human; conditions: OVCAR-3
[24] = system: ACHN; assay: NCI-60 SRB screen: renal cancer ACHN; type: cell-based, human
[25] = system: UO-31; assay: NCI-60 SRB screen: renal cancer UO-31; type: cell-based, human; conditions: UO-31
[26] = system: PC-3; assay: NCI-60 SRB screen: prostate cancer PC-3; type: cell-based, human; conditions: PC-3
[27] = system: MDA-MB-231/ATCC; assay: NCI-60 SRB screen: breast cancer MDA-MB-231/ATCC; type: cell-based; conditions: Homo sapiens, 48 h
[28] = system: MDA-MB-468; assay: NCI-60 SRB screen: breast cancer MDA-MB-468; type: cell-based, human
[29] = system: 60 human tumor cell lines; conditions: single dose 10 µM
[30] = system: 60 human tumor cell lines; assay: cells
[31] = system: Leukemia subpanel; assay: NCI-60 screen, subpanel Leukemia
[32] = system: Melanoma subpanel; assay: NCI-60 screen, subpanel Melanoma
[33] = system: CNS cancer subpanel; assay: NCI-60 screen, subpanel CNS cancer
[34] = system: NSCL cancer subpanel; assay: NCI-60 screen, subpanel NSCL cancer
[35] = system: Renal Cancer subpanel; assay: NCI-60 screen, subpanel Renal Cancer
[36] = system: Breast cancer subpanel; assay: NCI-60 screen, subpanel Breast cancer
[37] = single dose 10 µM, read-out: Percentage Cell Growth
[38] = five concentrations, SRB, read-out: GI50
[39] = Homo sapiens, five concentrations, 48 h, SRB, read-out: GI50

C=C(C)[C@@H]1CC[C@]2(C(=O)OC)CC[C@]3(C)[C@H](CC[C@@H]4[C@@]5(C)CCC(=NOCCC(=NOCCC#N)NCCC#N)C(C)(C)[C@@H]5CC[C@]43C)[C@@H]12 [Compound 21]
activity at 10 µM [1, 37]: 0.9% | GI50 [1, 38]: 5.18 µM | GI50 ([2]; Homo sapiens, K562, five concentrations, 48 h, SRB, read-out: GI50): 2.23 µM | Percentage Cell Growth ([2]; single dose 10 µM): 5.42% | Percentage Cell Growth ([3]; single dose 10 µM): 15.82% | GI50 [3, 39]: 5.27 µM | GI50 [4, 39]: 7.59 µM | Percentage Cell Growth ([4]; single dose 10 µM): 21.79% | activity at 10 µM [5, 37]: 4.23% | GI50 [5, 38]: 11.1 µM | GI50 [6, 39]: 8.34 µM | Percentage Cell Growth ([6]; single dose 10 µM): 13.36% | Percentage Cell Growth ([7]; single dose 10 µM): 17.60% | GI50 [7, 39]: 9.02 µM | Percentage Cell Growth ([8]; single dose 10 µM): 26.92% | GI50 [8, 39]: 13.8 µM | activity at 10 µM [9, 37]: 4.16% | GI50 [9, 38]: 2.89 µM | Percentage Cell Growth ([10]; single dose 10 µM): 34.28% | GI50 [10, 39]: 5.77 µM | activity at 10 µM ([11]; HT-29, 48 h, single dose 10 µM, read-out: Percentage Cell Growth): 3.88% | GI50 ([11]; HT-29, five concentrations, 48 h, SRB, read-out: GI50): 6.7 µM | GI50 [12, 39]: 9.35 µM | Percentage Cell Growth ([12]; single dose 10 µM): 10.89% | activity at 10 µM [13, 37]: 22% | GI50 [13, 38]: 4.45 µM | GI50 [14, 39]: 11.4 µM | Percentage Cell Growth ([14]; single dose 10 µM): 29.14% | GI50 [15, 39]: 11 µM | Percentage Cell Growth ([15]; single dose 10 µM): −2.29% | GI50 [16, 39]: 12.6 µM | Percentage Cell Growth ([16]; single dose 10 µM): 28.93% | GI50 [17, 39]: 4.32 µM | Percentage Cell Growth ([17]; single dose 10 µM): 14.56% | GI50 [18, 39]: 9.7 µM | Percentage Cell Growth ([18]; single dose 10 µM): 14.55% | GI50 [19, 39]: 13.8 µM | Percentage Cell Growth ([19]; single dose 10 µM): 36.23% | GI50 [20, 39]: 3.02 µM | Percentage Cell Growth ([20]; single dose 10 µM): −84.68% | GI50 [21, 39]: 2.32 µM | Percentage Cell Growth ([21]; single dose 10 µM): −25.76% | GI50 ([22]; Homo sapiens, IGROV-1, five concentrations, 48 h, SRB, read-out: GI50): 14.9 µM | Percentage Cell Growth ([22]; single dose 10 µM): 18.78% | GI50 [23, 39]: 5.17 µM | Percentage Cell Growth ([23]; single dose 10 µM): −34.55% | GI50 [24, 39]: 10.5 µM | Percentage Cell Growth ([24]; single dose 10 µM): 13.94% | GI50 [25, 39]: 15.6 µM | Percentage Cell Growth ([25]; single dose 10 µM): 19.03% | GI50 [26, 39]: 2.26 µM | Percentage Cell Growth ([26]; single dose 10 µM): 4.49% | activity at 10 µM ([27]; MDA-MB-231/ATCC, single dose 10 µM, read-out: Percentage Cell Growth): 5.09% | GI50 ([27]; MDA-MB-231, MDA-MB-31/ATCC, five concentrations, SRB, read-out: GI50): 10.3 µM | GI50 [28, 39]: 2.02 µM | Percentage Cell Growth ([28]; single dose 10 µM): 4.41% | cancer cell lethality, range of percentage growth ([29]; cell lines with negative growth): −0.38% to −84.68% | cases of cancer cell lethality ([29]; number of cell lines): 11 | GI50 ([30]; read-out: GI50 ranges against all panels of NCI60): 2.02 to 50 µM | GI50 ([30]; read-out: MID a, average sensitivity of all cell line (GI50-MID)): 10.2 µM | MID b, average sensitivity of all cell line of particular subpanel [31]: 4.90 µM | Selectivity, ratio MID a: MID b [31]: 2.09 | MID b, average sensitivity of all cell line of particular subpanel [32]: 8.81 µM | Selectivity, ratio MID a: MID b [32]: 1.16 | MID b, average sensitivity of all cell line of particular subpanel [33]: 15.32 µM | Selectivity, ratio MID a: MID b [33]: 0.67 | MID b, average sensitivity of all cell line of particular subpanel [34]: 12.43 µM | Selectivity, ratio MID a: MID b [34]: 0.83 | MID b, average sensitivity of all cell line of particular subpanel [35]: 11.39 µM | Selectivity, ratio MID a: MID b [35]: 0.89 | MID b, average sensitivity of all cell line of particular subpanel [36]: 10.16 µM | Selectivity, ratio MID a: MID b [36]: 1.00
